The source of these data is patent publication US20160051556A1, “Method and Pharmaceutical Composition for use in the Treatment of Chronic Liver Diseases Associated with a Low Hepcidin Expression” (INSERM (INSTITUT NATIONAL DE LA SANTÉ ET DE LA RECHERCHE …, priority 2013, published 2016).

What all share (type): in vivo, mouse
One assay deals with Hamp mRNA. Put plainly: Liver Hamp mRNA by qRT-PCR in Bmp6-/- males treated with gefitinib. Particulars: 7 w.o. Bmp6-/- males. As to the method:
(§1) Bmp6 null mice (Bmp^6mlRob) obtained from E. Robertson and wild-type controls on a CD1 background were sacrificed at 7, 12, or 30 weeks of age. Liver, spleen, heart, pancreas and kidney samples were dissected for RNA isolation, flash frozen in liquid nitrogen and stored at −80° C. Hamp-deficient mice were kindly provided by S. Vaulont. They were derived on a C57BL/6 background in the lab of T. Ganz. Gonadectomies and sham operations were performed under anesthesia at 4 weeks of age. Testosterone (10 mg/kg; Sigma) was suspended in corn oil and a total volume of 60 μL per mouse was injected sc everyday for a week. To investigate the role of erythropoiesis in the down-regulation of hepcidin by testosterone, Bmp6−/− females were whole-body irradiated with a sublethal dose of 60Co (6 Gy) on day 1, administered daily doses of testosterone (1 μg/g) starting on day 2, and sacrificed on day 8. To investigate the effect of EGF signaling on testosterone-induced hepcidin down-regulation, the selective EGFR inhibitor Gefitinib (Iressa) was stirred into 1% Tween 80 and administered orally daily from days −1 to 7 to Bmp6−/− males (200 mg/kg; Euromedex). Mice were housed under controlled lighting and temperature conditions, fed a chow of normal iron content (250 mg iron/kg; SAFE, Augy, France) ad libidum, and were fasted for 14 h before they were killed. Experimental protocols were approved by the Midi-Pyrenees Animal Ethics Committee.
(§2) Total RNA from mouse liver was extracted using Trizol (Invitrogen). cDNA was synthesized using MMLV-RT (Promega). The sequences of the primers for target genes and the reference gene Hprt are listed in supplemental Table 1. Quantitative PCR reactions were prepared with LightCycler 480 DNA SYBR Green I Master reaction mix (Roche Diagnostics, Mannheim, Germany) and run in duplicate on a LightCycler 480 Instrument (Roche Diagnostics).
(§3) Data were first normalized to the invariant control Hprt and, for each sample and each target gene, −ΔCt=−[Ct target gene−Ct Hprt] was calculated. Because the numerical value of Ct is inversely related to the amount of amplicon in the reaction, the higher the −ΔCt value, the greater the amount of target amplicon. Values shown are means±SEM. Target gene expression in an individual is proportional to 2^−ΔCt. However, individual expression values are usually shown on a log scale and, because log 2 (2^−ΔCt)[…], −ΔCt data rather than 2^−ΔCt data are plotted on the y-axes. An increase of 1 on the y-axis thus corresponds to a 2-fold increase in target gene expression. ΔCt data are the observed values from experimental procedures and it is recommended that ΔCt data rather 2−ΔCt data be the subject of statistical analysis (41). […]

Another assay relates to Hepcidin (Hamp) mRNA. Put plainly: Liver hepcidin (Hamp) mRNA by qRT-PCR after testosterone administration to ovariectomized Bmp6-/- mice.
For another assay, the system named is C-terminal phospho-Smad5. Put plainly: C-terminal phospho-Smad5 immunoblot of liver extracts, gonadectomized Bmp6-/- females treated with testosterone. Conditions: administration of testosterone to Bmp6-/- females. The protocol:
as §1, with “Mice were housed under controlled lighting and temperature conditions, fed a chow of normal iron content (250 mg iron/kg; SAFE, Augy, France) ad libidum, and were fasted for 14 h before they were killed. Experimental protocols were approved by the Midi-Pyrenees Animal Ethics Committee.” left out
(§4) Livers were homogeneized in a FastPrep®-24 Instrument (MP Biomedicals) for 15 sec at 4 m/s. […] Liver proteins were quantified using a protein assay kit (Bio-Rad). […]

The test system of a further assay is Egfr mRNA. Briefly: Liver Egfr mRNA by qRT-PCR after testosterone administration to gonadectomized Bmp6-/- females. The protocol: as §1, §2, §3
For the next assay, the system named is C-terminal phospho-Smad2. Briefly: C-terminal phospho-Smad2 immunoblot of liver extracts, gonadectomized Bmp6-/- females treated with testosterone. Conditions: administration of testosterone to Bmp6-/- females. The protocol: as §1, with “Mice were housed under controlled lighting and temperature conditions, fed a chow of normal iron content (250 mg iron/kg; SAFE, Augy, France) ad libidum, and were fasted for 14 h before they were killed. Experimental protocols were approved by the Midi-Pyrenees Animal Ethics Committee.” left out
as §4

Setting [1] is: gefitinib 200 mg/kg orally daily for 7 days.
Setting [2] is: non-irradiated 7 w.o. ovariectomized Bmp6-/- mice, testosterone propionate 10 mg/kg sc daily for 7 days.
[3] abbreviates: whole-body irradiated ovariectomized Bmp6-/- mice, daily testosterone days 2 to 8.
Where [4] appears, read: gonadectomized Bmp6-/- females, testosterone for a week.

Consider `COc1cc2ncnc(Nc3ccc(F)c(Cl)c3)c2cc1OCCCN1CCOCC1` [gefitinib, 4-quinazolinamine, N-(3-chloro-4-fluorophenyl)-7-methoxy-6-[3-(4-morpholinyl)propoxy]-(9CI)], for which, in the assay with Hamp mRNA (setting [1]), the “Hamp mRNA -ΔΔCt (gefitinib vs vehicule)” value came out at 2.76 and the “Hamp mRNA mean -ΔCt (Ct Hprt - Ct Hamp)” value is 4.02. Also, in the assay on Hamp mRNA (gefitinib 200 mg/kg orally daily for 7 days, liver mRNA), the “Hamp expression on average higher than in mice treated with vehicule” value is 6.8 fold. Further, the “Effect on Hamp mRNA levels (in words)” value in the assay on Hamp mRNA (gefitinib daily for 7 days) was “significant induction of Hamp mRNA levels”.

On to `CCC(=O)O[C@H]1CC[C@H]2[C@@H]3CCC4=CC(=O)CC[C@]4(C)[C@H]3CC[C@]12C` [testosterone, testosterone propionate], for which the “Effect on hepcidin expression in irradiated mice (in words)” value in the assay with Hepcidin (Hamp) mRNA (irradiated ovariectomized Bmp6-/- females, testosterone propionate 10 mg/kg days 2 to 8) is “downregulation of hepcidin expression to levels similar to those observed in non irradiated control mice”. In the assay with Hepcidin (Hamp) mRNA (setting [2]), the “Hamp mRNA -ΔΔCt (testosterone vs vehicule)” value is listed as −3.95 and the “Hamp mRNA mean -ΔCt (Ct Hprt - Ct Hamp)” value is reported as 1.27. For the same compound, in the assay with Hepcidin (Hamp) mRNA (non-irradiated 7 w.o. ovariectomized Bmp6-/- mice, testosterone propionate 10 mg/kg sc daily for 7 days, liver mRNA), the “Hepcidin expression repressed on average (vs vehicule)” value is listed as 15.4 fold. In addition, in the assay with Hepcidin (Hamp) mRNA (whole-body irradiated (60Co, 6 Gy) ovariectomized Bmp6-/- mice, daily testosterone days 2 to 8), the “Hepcidin expression reduced on average (vs vehicule)” value was determined as 16.3 fold. In the assay with Hepcidin (Hamp) mRNA (setting [3]), the “Hamp mRNA -ΔΔCt (testosterone vs vehicule)” value is −4.03 and the “Hamp mRNA mean -ΔCt (Ct Hprt - Ct Hamp)” value turned out to be 0.81. In the assay with C-terminal phospho-Smad5, the “C-terminal Smad phosphorylation (Smad5) in liver (in words)” value is given as “reduced”. For the same compound, in the assay with Egfr mRNA (setting [4]), the “Egfr mRNA -ΔΔCt (testosterone vs vehicule)” value was determined as 1.72 and the “Egfr mRNA mean -ΔCt (Ct Hprt - Ct Egfr)” value is listed as 0.88. For the same compound, the “Egfr expression increased on average (vs vehicule)” value with Egfr mRNA (gonadectomized Bmp6-/- females, testosterone for a week, liver mRNA) stood at 3.3 fold. Moreover, in the assay on Egfr mRNA (ovariectomized Bmp6-/- females treated with testosterone for a week), the “Effect on liver Egfr expression (in words)” value is “induced”. In the assay on C-terminal phospho-Smad2, the “C-terminal Smad2 phosphorylation in liver (in words)” value is recorded as “increased”.
